Measured values from patent publication US20060014231A1, “Methods and compositions to promote bone homeostasis” (priority 2004, published 2006).

What was measured:
[1] = system: primary human MPCs; test: Mineralization assay (Alizarin RedS / Von Kossa stain); format: cell-based; details: MPCs with NR1H3 and ligand
Description: On day one, primary human MPCs are seeded in a 6 well plate (Costar or Nunc) at a density of 50,000 to 250,000 cells per well, typically at 100,000 cells per well. MPCs are co-infected one day later with AdC15-hCAR (MOI 750) and Ad-control (eGFP or BMP2) or hit-virus (Ad5) (at MOIs between 250 and 20,000, typically at MOIs 5000 and 2500). For Ad-GPCR or Ad-NHR experiments, cells can additionally be treated with specific ligands. These are added at the EC50 concentration and at concentrations 5-10 times higher and lower. Ligands are added 2-3 times per week. Medium supplemented with 100 μg/ml L-ascorbate and 10 mM beta-glycerophosphate, is refreshed 2 times a week. 20 to 30 days after the start of the experiment, cells are stained with Von Kossa stain or with Alizarin RedS stain.
The Alizarin RedS staining is carried out as follows: cells are washed once with PBS, fixed with 10% paraformaldehyde for 45 minutes at 4° C., and washed 2 times with PBS. Cells are incubated with 40 mM aqueous Alizarin RedS solution, pH 4.1-4.3 for 10 minutes followed by 5 washes with distilled water. Staining is evaluated and photographed using white light.

[2] = molecular target: T1, NR1H3 (Homo sapiens, UniProt Q13133); test: Alkaline phosphatase (AP) assay in MPCs infected with Ad-NR1H3 and treated with ligand; format: cell-based
T1 construct: amplification of the complete open reading frame from ATG start codon to the stop codon of drugable genes; expressed in transfected cells; host or cells: primary human bone-marrow mesenchymal progenitor cells (MPCs), adenoviral transduction (Ad5-NR1H3 with Ad-hCAR)
T1 sequence (Q13133 1-447): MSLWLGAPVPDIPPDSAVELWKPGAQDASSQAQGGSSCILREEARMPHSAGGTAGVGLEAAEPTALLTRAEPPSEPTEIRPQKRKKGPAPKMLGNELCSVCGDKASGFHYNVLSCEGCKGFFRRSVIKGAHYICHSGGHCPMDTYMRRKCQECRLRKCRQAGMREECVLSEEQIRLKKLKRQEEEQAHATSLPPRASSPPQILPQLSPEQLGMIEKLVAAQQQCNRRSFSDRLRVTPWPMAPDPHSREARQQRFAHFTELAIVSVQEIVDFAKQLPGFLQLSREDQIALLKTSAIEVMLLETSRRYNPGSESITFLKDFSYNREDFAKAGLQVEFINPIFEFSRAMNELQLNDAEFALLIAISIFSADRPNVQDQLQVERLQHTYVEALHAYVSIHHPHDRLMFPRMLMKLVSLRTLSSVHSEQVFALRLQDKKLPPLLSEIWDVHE
Description: Cellular AP activity is determined 6 days after the infection (or ligand addition—see below). The principle of the assays is depicted in FIG. 2. Mesenchymal stem cells derived from bone marrow are infected with the FLeXSelect™ cDNA library viruses in the presence of Ad5C15-hCAR or Ad5C20-hCAR virus. Six days after the start of infection or treatment with a ligand, endogenous alkaline phosphatase activity is measured following addition of 4-methylumbelliferyl […] (MUP) substrate.
The stocks of the Ad-control-viruses are generated in 96 well plates (control plate). The 2 μl volume corresponds to a theoretical MOI of 5000. Controls are: P1=Ad-BMP2; P2=Ad-H4-2; P3=Ad-H4-291; N1=Ad-LacZ; N2=Ad-empty; N3=Ad-eGFP. Up-regulation of alkaline phosphatase is read at 6 days post infection (6 dpi): 15 μl 4-Methylumbelliferyl-phosphate (MUP, Sigma) is added to each well, the plates are incubated for 15 min at 37° C. and monitored for AP activity using a fluorescence plate reader (Fluostar, BMG).
These dose-response curves are depicted in FIG. 5. […] MPCs are seeded on day 0 at 1000 cells per well of a 384 well plate and co-infected the next day using AdC51-hCAR (MOI 250) and different MOIs of Ad5-NR1H3 (MOI 12000, 4000, 1333, 444).
After 6 days, medium is removed and replaced with fresh medium containing the same concentrations of the compound GW3965. Readouts of AP activity are performed at several time points after the start of the experiment, typically after 7, 10 and 13 days.
After 6 days, medium is removed and replaced with fresh medium containing the same concentrations of the compound APD.

induction of AP activity in MPC isolates from 4 different donors ([2]; Ad-NR1H3 MOI 2500 + T0901317 at different concentrations, 6 days): induce AP activity to similar extents | up-regulation of endogenous alkaline phosphatase (AP) activity ([2]; MPCs infected with Ad-NR1H3, increasing ligand concentrations, MUP fluorescence readout): dose-dependently increase
Compound: O=S(=O)(c1ccccc1)N(CC(F)(F)F)c1ccc(C(O)(C(F)(F)F)C(F)(F)F)cc1 [T0901317]
mineralization [1]: score well
